The target of experiment [1] is T1, human CB1 receptor (Homo sapiens, UniProt P21554).
T1 construct: expressed in transfected cells; host or cells: HEK293
Nature of the experiment: bioSensAll GAPL-Gi2 BRET biosensor assay in HEK293 cells transfected with hCB1; test compound added before EC75-80 of agonist CP55,940 (0.1 nM). In kind it is cell-based. Conditions: vs CP55,940 0.1 nM (EC75-80), read-out: CB1 wt Gi2 IC50. Put shortly: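 Test compounds at 12 doses up to 600 nM preceded a 0.1 nM CP55,940 challenge in hCB1/GAPL-Gi2 HEK293 cells. After overnight 37° C incubation, methoxy e-coelenterazine (2 µM final) was added and the 515/400 nm BRET ratio normalized to positive and negative controls.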

The target of experiment [2] is T1, human CB1 receptor. Nature of the experiment: bioSensAll β-arrestin2 plasma membrane translocation (+GRK2) BRET biosensor assay in HEK293 cells transfected with hCB1; test compound added before EC75-80 of agonist CP55,940 (100 nM). Format: cell-based. Conditions: βArrestin2 (+GRK2) BRET biosensor, vs CP55,940 100 nM (EC75-80), read-out: CB1 wt βarr2 IC50. Put shortly: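 HEK293 cells co-transfected with hCB1 and β-arrestin2 PM-translocation BRET biosensor (+GRK2); 48 h post-transfection in HBSS, test compound (0–600 nM, 12 points) added 3–5 min before CP55,940 at 100 nM (EC75-80). Overnight incubation at 37 °C; BRET (515/400 nm) read after 2 µM e-coelenterazine Prolume Purple, standardized to controls.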

Where only a bound is given, the exact number is not on record here.

T1 sequence (P21554 whole entry): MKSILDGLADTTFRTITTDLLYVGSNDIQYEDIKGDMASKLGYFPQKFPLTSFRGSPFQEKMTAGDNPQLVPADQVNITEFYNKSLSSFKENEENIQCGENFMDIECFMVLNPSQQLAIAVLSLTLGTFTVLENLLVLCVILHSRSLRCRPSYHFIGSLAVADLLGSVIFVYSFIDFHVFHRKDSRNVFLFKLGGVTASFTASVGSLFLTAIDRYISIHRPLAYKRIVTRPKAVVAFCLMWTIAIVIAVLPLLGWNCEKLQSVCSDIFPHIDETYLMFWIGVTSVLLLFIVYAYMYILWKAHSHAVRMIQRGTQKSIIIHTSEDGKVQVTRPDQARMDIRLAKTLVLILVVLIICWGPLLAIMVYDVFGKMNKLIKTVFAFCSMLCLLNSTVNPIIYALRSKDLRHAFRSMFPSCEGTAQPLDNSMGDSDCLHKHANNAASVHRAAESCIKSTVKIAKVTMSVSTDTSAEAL

Regarding `CN(CC(C)(C)O)c1nc(N2CCC(C)(C(N)=O)CC2)c2nc(-c3ccc(C#N)nc3)n(-c3ccc(Cl)cc3)c2n1` [Compound 110, 1-[9-(4-chlorophenyl)-8-(6-cyano-3-pyridyl)-2-[(2-hydroxy-2-methyl-propyl)-methyl-amino]purin-6-yl]-4-methyl-piperidine-4-carboxamide], the IC50 at human CB1 receptor [1] worked out at 6.33 nM; at human CB1 receptor [2] it was 13 nM.
As to `CC(C)(O)CNc1nc(N2CCC(C)(C(N)=O)CC2)c2nc(-c3ccc(C#N)nc3)n(-c3ccc(Cl)cc3)c2n1` [Compound 111, 1-[9-(4-chlorophenyl)-8-(6-cyano-3-pyridyl)-2-[(2-hydroxy-2-methyl-propyl)amino]purin-6-yl]-4-methyl-piperidine-4-carboxamide], the IC50 on human CB1 receptor [1] amounted to 18.4 nM; on human CB1 receptor [2], 53.7 nM.
In the case of `CC(C)(O)COc1nc(N2CC(C)(O)C2)c2nc(-c3ccc(C#N)nc3)n(-c3ccc(Cl)cc3)c2n1` [Compound 112, 5-[9-(4-chlorophenyl)-6-(3-hydroxy-3-methyl-azetidin-1-yl)-2-(2-hydroxy-2-methyl-propoxy)purin-8-yl]pyridine-2-carbonitrile], the IC50 came out at 88.3 nM at human CB1 receptor [1] and 105 nM on human CB1 receptor [2].
Taken in the same sequence, the figures for `CC(C)(O)COc1nc(N2CC(C)(C#N)C2)c2nc(-c3ccc(C#N)nc3)n(-c3ccc(Cl)cc3)c2n1` [Compound 113, 5-[9-(4-chlorophenyl)-6-(3-cyano-3-methyl-azetidin-1-yl)-2-(2-hydroxy-2-methyl-propoxy)purin-8-yl]pyridine-2-carbonitrile] were 7.11 nM and 15.5 nM.
With `COC1(C)CN(c2nc(OCC(C)(C)O)nc3c2nc(-c2ccc(C#N)nc2)n3-c2ccc(Cl)cc2)C1` [Compound 114, 5-[9-(4-chlorophenyl)-2-(2-hydroxy-2-methyl-propoxy)-6-(3-methoxy-3-methyl-azetidin-1-yl)purin-8-yl]pyridine-2-carbonitrile], the values for the concentration for half-maximal inhibition (IC50) at human CB1 receptor [1] and at human CB1 receptor [2] were 3.87 nM and 14.1 nM, respectively.
`Cc1cnc(-c2nc3c(N4CCC(C)(C(N)=O)CC4)nc(N(C)CCO)nc3n2-c2ccc(Cl)cc2)n1C` [Compound 115, 1-(9-(4-chlorophenyl)-8-(1,5-dimethyl-1H-imidazol-2-yl)-2-((2-hydroxyethyl)(methyl)amino)-9H-purin-6-yl)-4-methylpiperidine-4-carboxamide]: the half-inhibitory concentration (IC50) came out at 17.8 nM at human CB1 receptor [1] and 93.6 nM on human CB1 receptor [2].
`CN(C)c1ccc(-c2nc3c(N4CCC(C)(C(N)=O)CC4)nc(OCC(C)(C)O)nc3n2-c2ccc(Cl)cc2)cn1` [Compound 116, 1-[9-(4-chlorophenyl)-8-[6-(dimethylamino)-3-pyridyl]-2-(2-hydroxy-2-methyl-propoxy)purin-6-yl]-4-methyl-piperidine-4-carboxamide]: the values for the half-maximal inhibitory concentration (IC50) on human CB1 receptor [1] and on human CB1 receptor [2] were 68.8 nM and above 5000 nM, respectively.
As for `CN1CCC[C@H]1COc1nc(N2CCC(C)(C(N)=O)CC2)c2nc(-c3ccccc3Cl)n(-c3ccc(Cl)cc3)c2n1` [Compound 117, 1-[8-(2-chlorophenyl)-9-(4-chlorophenyl)-2-[[(2S)-1-methylpyrrolidin-2-yl]methoxy]purin-6-yl]-4-methyl-piperidine-4-carboxamide], the IC50 at human CB1 receptor [1] is 1.64 nM; at human CB1 receptor [2] it was 3.76 nM.
For `CCOC1(C(N)=O)CCN(c2nc(OCC(C)(C)O)nc3c2nc(-c2ccc(C#N)nc2)n3-c2ccc(Cl)cc2)CC1` [Compound 120, 1-[9-(4-chlorophenyl)-8-(6-cyano-3-pyridyl)-2-(2-hydroxy-2-methyl-propoxy)purin-6-yl]-4-ethoxy-piperidine-4-carboxamide], the values for the IC50 on human CB1 receptor [1] and on human CB1 receptor [2] were 16.9 nM and 25.4 nM, respectively.
As for `CC(C)(O)COc1nc(N2CCC(C)(C(N)=O)CC2)c2nc(-c3ccncc3Cl)n(-c3ccc(Cl)cc3)c2n1` [Compound 121, 1-[9-(4-chlorophenyl)-8-(3-chloro-4-pyridyl)-2-(2-hydroxy-2-methyl-propoxy)purin-6-yl]-4-methyl-piperidine-4-carboxamide], the concentration for half-maximal inhibition (IC50) at human CB1 receptor [1] came to 2.6 nM; at human CB1 receptor [2] it was 17 nM.
On to `CC(C)(O)COc1nc(-c2ccc(C(F)(F)F)nc2)c2nc(-c3ccccc3Cl)n(-c3ccc(Cl)cc3)c2n1` [Compound 123], for which the IC50 at human CB1 receptor [1] stood at 0.876 nM; on human CB1 receptor [2], 2.04 nM.
Regarding `CN(CC(C)(C)O)c1nc(-c2ccc(C(F)(F)F)nc2)c2nc(-c3ccccc3Cl)n(-c3ccc(Cl)cc3)c2n1` [Compound 124], the half-maximal inhibitory concentration (IC50) at human CB1 receptor [1] was 3.23 nM; at human CB1 receptor [2], 12.1 nM.
The corresponding values for `CN(CC1COC1)c1nc(-c2ccc(C(F)(F)F)nc2)c2nc(-c3ccccc3Cl)n(-c3ccc(Cl)cc3)c2n1` [Compound 125] are 4.99 nM and 16.4 nM.
Regarding `CN(CC1(C)COC1)c1nc(-c2ccc(C(F)(F)F)nc2)c2nc(-c3ccccc3Cl)n(-c3ccc(Cl)cc3)c2n1` [Compound 126], the IC50 on human CB1 receptor [1] was found to be 8.07 nM; at human CB1 receptor [2], 20.7 nM.
Regarding `Cc1nc(N2CCC(C)(C(N)=O)CC2)c2nc(-c3ccccc3Cl)n(-c3ccc(Cl)cc3)c2n1` [Compound 127], the results for the IC50 at human CB1 receptor [1] and at human CB1 receptor [2] were 9.42 nM and 40.9 nM, respectively.
Regarding `CN(CC(C)(C)O)c1nc(N2CC(C(N)=O)C2)c2nc(-c3ccccc3Cl)n(-c3ccc(Cl)cc3)c2n1` [Compound 128], the half-maximal inhibitory concentration (IC50) on human CB1 receptor [1] stood at 9.52 nM; at human CB1 receptor [2], 39.5 nM.
`CC1(C(N)=O)CCN(c2nc(N3CCC[C@H]3CO)nc3c2nc(-c2ccc(C#N)nc2)n3-c2ccc(Cl)cc2)CC1` [Compound 130, 1-[9-(4-chlorophenyl)-8-(6-cyano-3-pyridyl)-2-[(2S)-2-(hydroxymethyl)pyrrolidin-1-yl]purin-6-yl]-4-methyl-piperidine-4-carboxamide]: the IC50 on human CB1 receptor [1] is 0.592 nM; on human CB1 receptor [2], 1.2 nM.
Take `CC1(C(N)=O)CCN(c2nc(N3CC[C@@H](O)C3)nc3c2nc(-c2ccc(C#N)nc2)n3-c2ccc(Cl)cc2)CC1` [Compound 131, 1-[9-(4-chlorophenyl)-8-(6-cyano-3-pyridyl)-2-[(3R)-3-hydroxypyrrolidin-1-yl]purin-6-yl]-4-methyl-piperidine-4-carboxamide]: the figures for the half-inhibitory concentration (IC50) at human CB1 receptor [1] and at human CB1 receptor [2] were 0.713 nM and 2.95 nM, respectively.
`CCOC1(C(N)=O)CCN(c2nc(NCC(C)(C)O)nc3c2nc(-c2ccc(C#N)nc2)n3-c2ccc(Cl)cc2)CC1` [Compound 132, 1-[9-(4-chlorophenyl)-8-(6-cyano-3-pyridyl)-2-[(2-hydroxy-2-methyl-propyl)amino]purin-6-yl]-4-ethoxy-piperidine-4-carboxamide]: the IC50 on human CB1 receptor [1] was 17.8 nM; on human CB1 receptor [2], above 5000 nM.
Regarding `CCOC1(C(N)=O)CCN(c2nc(N3CCC[C@H]3CO)nc3c2nc(-c2ccc(C#N)nc2)n3-c2ccc(Cl)cc2)CC1` [Compound 133, 1-[9-(4-chlorophenyl)-8-(6-cyano-3-pyridyl)-2-[(2S)-2-(hydroxymethyl)pyrrolidin-1-yl]purin-6-yl]-4-ethoxy-piperidine-4-carboxamide], the values for the IC50 at human CB1 receptor [1] and at human CB1 receptor [2] were 0.673 nM and 1.8 nM, respectively.
`CC(C)OC1(C(N)=O)CCN(c2nc(OCC(C)(C)O)nc3c2nc(-c2ccc(C#N)nc2)n3-c2ccc(Cl)cc2)CC1` [Compound 135]: the IC50 at human CB1 receptor [1] stood at 2.3 nM; at human CB1 receptor [2], 11.7 nM.

For the origin of these results see patent US20250333418A1, “PURINE COMPOUNDS, COMPOSITIONS COMPRISING THEM AND USES THEREOF” (Novo Nordisk A/S, priority 2022, published 2025).
